According to PMC3000800 (Bioorganic & medicinal chemistry letters, 2010):

Columns and labels:
[1] = molecular target: native α7 nAChR in rat brain membranes (Rattus norvegicus, UniProt Q05941); assay: biochemical; assay type: binding; settings: for inhibition at 10 µM: read-out: Percent binding/inhibition, α7 receptor (selectivity study)
neuronal α4β2 nAChRs = neuronal α4β2 nAChRs (Rattus norvegicus, UniProt P09483+P12390); assay: biochemical; settings: read-out: Percent binding/inhibition, neuronal α4β2
muscle-type nAChR = muscle-type nAChR (Homo sapiens, UniProt P02708+P07510+Q07001); assay type: binding
human 5HT3 receptor = molecular target: T1, human 5HT3 receptor (Homo sapiens, UniProt P46098); assay: biochemical; settings: read-out: Percent binding/inhibition, 5HT3 receptor
T1 sequence (P46098 24-478): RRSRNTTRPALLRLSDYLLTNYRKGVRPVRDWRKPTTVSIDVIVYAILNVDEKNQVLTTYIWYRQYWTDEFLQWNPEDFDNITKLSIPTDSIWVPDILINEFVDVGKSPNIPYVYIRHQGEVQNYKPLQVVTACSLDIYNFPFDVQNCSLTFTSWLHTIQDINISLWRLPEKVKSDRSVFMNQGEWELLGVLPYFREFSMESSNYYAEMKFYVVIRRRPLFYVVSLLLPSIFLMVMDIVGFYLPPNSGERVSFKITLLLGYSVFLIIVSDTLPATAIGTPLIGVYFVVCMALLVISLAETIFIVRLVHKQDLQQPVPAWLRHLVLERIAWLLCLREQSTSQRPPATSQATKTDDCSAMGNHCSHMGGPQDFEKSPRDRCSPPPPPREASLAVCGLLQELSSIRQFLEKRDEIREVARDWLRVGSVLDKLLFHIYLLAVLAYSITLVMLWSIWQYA

human α7 nAChR = human α7 nAChR (Homo sapiens, UniProt P36544); assay: cell-based
[2] = tested on: DFP-induced seizure-like behaviors; settings: mouse, in vivo
[3] = male, C57Bl/6, mouse, in vivo, ip, 10 mg/kg

Chain of native α7 nAChR in rat brain membranes (Q05941 23-502): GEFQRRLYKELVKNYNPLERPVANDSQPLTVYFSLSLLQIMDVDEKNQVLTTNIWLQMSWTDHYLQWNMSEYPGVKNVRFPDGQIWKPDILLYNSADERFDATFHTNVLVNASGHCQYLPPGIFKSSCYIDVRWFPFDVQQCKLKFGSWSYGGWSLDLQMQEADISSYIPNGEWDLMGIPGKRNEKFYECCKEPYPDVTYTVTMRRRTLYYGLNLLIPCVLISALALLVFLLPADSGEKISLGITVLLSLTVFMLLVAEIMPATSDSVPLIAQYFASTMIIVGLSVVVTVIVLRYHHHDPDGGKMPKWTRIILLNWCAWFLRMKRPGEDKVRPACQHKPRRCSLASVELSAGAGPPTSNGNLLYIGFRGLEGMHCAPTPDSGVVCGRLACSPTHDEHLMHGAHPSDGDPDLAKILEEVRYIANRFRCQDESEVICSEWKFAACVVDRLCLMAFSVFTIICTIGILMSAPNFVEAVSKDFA
Chain of neuronal α4β2 nAChRs (P09483 31-630): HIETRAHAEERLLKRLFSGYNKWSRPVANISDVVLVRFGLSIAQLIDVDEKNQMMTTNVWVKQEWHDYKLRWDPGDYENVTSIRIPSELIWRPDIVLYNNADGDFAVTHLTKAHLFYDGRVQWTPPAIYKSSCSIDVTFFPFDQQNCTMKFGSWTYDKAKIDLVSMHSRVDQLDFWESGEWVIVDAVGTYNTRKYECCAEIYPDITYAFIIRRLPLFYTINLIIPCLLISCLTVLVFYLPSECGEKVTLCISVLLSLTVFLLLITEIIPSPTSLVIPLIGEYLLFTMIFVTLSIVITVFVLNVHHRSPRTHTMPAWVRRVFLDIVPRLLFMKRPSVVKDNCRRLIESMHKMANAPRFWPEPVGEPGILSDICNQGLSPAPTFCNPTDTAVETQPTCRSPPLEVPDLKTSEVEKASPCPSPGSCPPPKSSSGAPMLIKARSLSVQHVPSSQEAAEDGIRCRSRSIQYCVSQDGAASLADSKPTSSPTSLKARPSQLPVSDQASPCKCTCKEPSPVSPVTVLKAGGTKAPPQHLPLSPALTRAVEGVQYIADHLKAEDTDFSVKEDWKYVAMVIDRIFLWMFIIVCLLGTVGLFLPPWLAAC
Chain of neuronal α4β2 nAChRs (P12390 25-500): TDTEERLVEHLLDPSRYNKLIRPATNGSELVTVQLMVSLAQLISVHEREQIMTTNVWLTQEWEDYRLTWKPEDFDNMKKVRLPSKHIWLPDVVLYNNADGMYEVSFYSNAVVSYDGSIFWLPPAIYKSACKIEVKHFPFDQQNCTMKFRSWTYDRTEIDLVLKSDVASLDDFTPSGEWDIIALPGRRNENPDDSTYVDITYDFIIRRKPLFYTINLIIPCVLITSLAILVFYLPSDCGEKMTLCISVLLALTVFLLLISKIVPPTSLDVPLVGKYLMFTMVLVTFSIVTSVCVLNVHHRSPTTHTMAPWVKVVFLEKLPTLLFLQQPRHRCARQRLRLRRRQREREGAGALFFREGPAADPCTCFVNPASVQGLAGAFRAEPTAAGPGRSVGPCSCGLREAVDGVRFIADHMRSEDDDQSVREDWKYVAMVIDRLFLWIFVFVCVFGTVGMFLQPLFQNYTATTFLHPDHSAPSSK
Chain of muscle-type nAChR (P02708 21-457): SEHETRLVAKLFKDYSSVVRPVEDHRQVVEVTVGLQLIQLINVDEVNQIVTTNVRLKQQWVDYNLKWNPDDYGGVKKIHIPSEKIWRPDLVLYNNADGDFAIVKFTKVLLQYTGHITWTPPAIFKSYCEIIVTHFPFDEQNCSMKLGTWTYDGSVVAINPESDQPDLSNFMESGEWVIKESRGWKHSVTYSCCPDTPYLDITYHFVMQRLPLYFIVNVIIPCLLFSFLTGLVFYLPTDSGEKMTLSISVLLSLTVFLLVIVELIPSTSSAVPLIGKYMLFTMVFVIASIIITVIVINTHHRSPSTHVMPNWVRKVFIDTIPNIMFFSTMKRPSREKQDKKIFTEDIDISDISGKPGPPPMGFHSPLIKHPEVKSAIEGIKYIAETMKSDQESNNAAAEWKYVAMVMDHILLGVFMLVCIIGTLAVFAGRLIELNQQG
Chain of muscle-type nAChR (P07510 23-517): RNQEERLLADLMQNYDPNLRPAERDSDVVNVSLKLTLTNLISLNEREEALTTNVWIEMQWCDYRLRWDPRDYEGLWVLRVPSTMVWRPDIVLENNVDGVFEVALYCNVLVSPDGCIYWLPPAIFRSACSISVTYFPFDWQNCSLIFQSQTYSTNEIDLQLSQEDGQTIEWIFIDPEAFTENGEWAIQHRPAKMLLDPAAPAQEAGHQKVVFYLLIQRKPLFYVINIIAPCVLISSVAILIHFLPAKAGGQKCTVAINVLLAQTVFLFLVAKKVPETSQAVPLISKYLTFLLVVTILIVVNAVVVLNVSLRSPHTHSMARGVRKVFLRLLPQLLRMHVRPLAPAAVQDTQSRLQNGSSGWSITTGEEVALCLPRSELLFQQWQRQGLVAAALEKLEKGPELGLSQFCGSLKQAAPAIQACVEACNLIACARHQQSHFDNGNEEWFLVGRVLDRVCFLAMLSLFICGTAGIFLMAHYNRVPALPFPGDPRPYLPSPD
Chain of muscle-type nAChR (P11230 24-501, further chain): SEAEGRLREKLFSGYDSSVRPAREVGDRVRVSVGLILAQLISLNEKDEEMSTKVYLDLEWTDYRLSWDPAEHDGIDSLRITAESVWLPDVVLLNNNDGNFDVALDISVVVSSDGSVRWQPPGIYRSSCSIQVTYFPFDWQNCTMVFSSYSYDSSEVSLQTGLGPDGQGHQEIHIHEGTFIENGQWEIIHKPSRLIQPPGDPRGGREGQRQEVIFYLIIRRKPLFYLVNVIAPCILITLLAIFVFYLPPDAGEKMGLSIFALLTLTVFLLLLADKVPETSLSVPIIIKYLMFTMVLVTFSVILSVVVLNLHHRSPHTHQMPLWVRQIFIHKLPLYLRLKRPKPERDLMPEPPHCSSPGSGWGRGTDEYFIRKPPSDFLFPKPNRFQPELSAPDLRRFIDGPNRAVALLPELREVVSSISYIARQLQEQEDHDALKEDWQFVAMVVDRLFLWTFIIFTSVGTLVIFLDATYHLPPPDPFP
Chain of muscle-type nAChR (Q07001 22-517): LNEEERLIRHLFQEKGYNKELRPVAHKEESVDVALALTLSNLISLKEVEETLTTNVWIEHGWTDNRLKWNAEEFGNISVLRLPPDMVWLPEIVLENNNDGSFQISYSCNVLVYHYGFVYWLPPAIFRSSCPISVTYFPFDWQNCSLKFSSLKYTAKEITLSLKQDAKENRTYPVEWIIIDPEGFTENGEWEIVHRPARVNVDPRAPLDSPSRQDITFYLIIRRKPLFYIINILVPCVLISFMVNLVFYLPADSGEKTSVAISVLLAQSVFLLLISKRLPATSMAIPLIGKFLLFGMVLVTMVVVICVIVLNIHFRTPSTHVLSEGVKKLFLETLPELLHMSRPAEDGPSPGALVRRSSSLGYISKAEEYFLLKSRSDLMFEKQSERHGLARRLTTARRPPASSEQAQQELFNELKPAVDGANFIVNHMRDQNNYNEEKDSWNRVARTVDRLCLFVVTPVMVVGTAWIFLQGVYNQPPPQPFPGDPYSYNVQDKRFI
Chain of human α7 nAChR (P36544 23-502): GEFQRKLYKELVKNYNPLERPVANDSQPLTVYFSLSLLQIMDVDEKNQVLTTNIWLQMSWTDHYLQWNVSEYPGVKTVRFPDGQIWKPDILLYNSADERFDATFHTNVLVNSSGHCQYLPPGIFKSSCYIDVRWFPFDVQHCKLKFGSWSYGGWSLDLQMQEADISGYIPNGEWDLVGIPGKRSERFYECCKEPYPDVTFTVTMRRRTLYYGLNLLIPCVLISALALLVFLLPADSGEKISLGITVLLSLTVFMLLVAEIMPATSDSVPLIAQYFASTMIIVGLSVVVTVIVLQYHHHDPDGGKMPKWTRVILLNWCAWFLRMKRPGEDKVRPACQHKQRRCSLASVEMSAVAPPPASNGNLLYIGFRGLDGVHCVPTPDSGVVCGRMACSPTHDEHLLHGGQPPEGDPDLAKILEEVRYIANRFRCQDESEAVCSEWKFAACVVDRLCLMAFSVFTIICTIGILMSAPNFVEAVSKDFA

Row | SMILES | inhibition at 10 µM [1] | inhibition at 10 µM (neuronal α4β2 nAChRs) | binding to the muscle-type nAChR (muscle-type nAChR) | inhibition at 10 µM (human 5HT3 receptor) | binding affinity to the α7 nAChR (in words) [1] | IC50 (human α7 nAChR) | Normalized % neuroprotection [2] | Normalized % seizure [2] | Seizure score (mean ± SD) [2] | IC50 [1] | concentration in brain [3]
1 | O=C(NCC1CCN(Cc2ccccc2)CC1)c1cn(Cc2cccc(Cl)c2)nn1 [compound 7] | 82.5% | 18.8% | no detectable binding | 8.4% | – | – | – | – | – | – | –
2 | CCCc1c(C(=O)NC2CCNCC2)cnn1-c1ccccc1 [8i] | – | – | – | – | completely abolished the binding affinity | – | – | – | – | – | –
3 | CN(CC1CCN(Cc2ccccc2)CC1)C(=O)c1cn(Cc2ccccc2Cl)nn1 [compound 7i] | – | – | – | – | – | 3.8 µM | 93.4% | 6.6% | 0.6 ± 1.3 | – | –
4 | CCCc1c(C(=O)NC2CCN(Cc3ccccc3)CC2)cnn1-c1ccccc1 [compound 8] | 82.5% | 1.3% | no detectable binding | 14.3% | – | 18.9 µM | 91.2% | 8.8% | 0.8 ± 1.3 | 2.9 µM | 9 µM
5 | CCCc1c(C(=O)NC2CCN(C)CC2)cnn1-c1ccccc1 [8h] | – | – | – | – | completely abolished the binding affinity | – | – | – | – | – | –
